From US11292781B2, “Pyrimidine tricyclic enone derivatives for inhibition of ROR-gamma and other uses” (REATA PHARMACEUTICALS, INC., priority 2016, dated 2022)

Experiments:
[1] = test system: IL-17A levels in primary human CD4+ T cells differentiated into Th17 cells; test: IL-17 release from differentiated primary human T-cells (IL-17A HTRF); type: cell-based; settings: primary human CD4+ T cells, Th17 differentiation, 46-hour incubation; read-out: hIL17 IC50
Experimental: C. IL-17 Release from Differentiated Primary Human T-Cells and Cell Viability Primary human cryopreserved CD4+ T Cells (Lonza, donor #0000402103) were plated in Lymphocyte Growth Medium-3 (LGM-3, Lonza) according to the manufacturer's recommendations, and allowed to recover for approximately 3 hours at 37° C. with 5% CO2 in a humidified atmosphere. […] Triplicate wells were plated for each test condition. DMSO (final concentration ≤0.1%) was used as the vehicle. Immediately after plating, CD4+ T cells were activated by adding Dynabeads Human T-Activator CD3/CD28 (Life Technologies; bead-to-cell ratio of 1:2.5) and differentiated into Th17 cells by adding a mixture of the following cytokines: transforming growth factor-β (TGF-β, 5 ng/mL), IL-6 (20 ng/mL), IL-23 (20 ng/mL), and […] (10 ng/mL). Undifferentiated control cells received only cytokine IL-2 (50 ng/mL). All human recombinant cytokines were purchased from R&D Systems. Following a 46-hour incubation at 37° C. with 5% CO2 in a humidified atmosphere, the plates were centrifuged for 3 minutes at 250×g, and half of the supernatant was transferred to a new plate to be used in the IL-17A assay (see below). Cell viability was assessed in the original plate using the CyQuant Direct Assay (Life Technologies). CyQuant values from test compound samples were normalized to those from DMSO-treated samples. The concentration of IL-17A in the supernatant was measured using the Homogeneous Time-Resolved Fluorescence (HTRF) assay (Cisbio Bioassays) according to the manufacturer's protocol. The assay was performed at room temperature in low volume, solid white 384-well plates (Greiner Bio-One). […] A non-linear regression analysis with log (inhibitor) vs. normalized response using a variable slope was applied to fit the data and determine the IC50 values for inhibition of IL-17A levels and cell viability.

[2] = test system: Nrf2 transcription factor (GST ARE luciferase reporter in AREc32 cells); test: AREc32 luciferase reporter assay; type: cell-based, human; settings: EC2×: concentration required to increase GST ARE luciferase reporter activity by 2-fold, 19 hours
Description: A. AREc32 Luciferase Reporter Assay The AREc32 luciferase reporter assay allows for quantitative assessment of the endogenous activity of the Nrf2 transcription factor in cultured mammalian cells. AREc32 cells are derived from MCF-7 human breast carcinoma cells that were stably transfected with a reporter construct that contains the firefly luciferase gene located downstream of eight copies of the rat GSTA2 antioxidant response element (ARE) sequence (Wang et al., 2006; CXR Biosciences). Active NRF2 binds to the ARE sequences and increases expression of the firefly luciferase gene. […] Luciferase activity was determined using the ONE-Glo Luciferase assay (Promega). The luminescence signal was measured on a BMG Pherastar microplate reader. The mean luminescence value from test compound-treated wells was normalized to that from DMSO-treated wells and was represented as fold-induction. Data were analyzed using GraphPad Prism version 6.00 for Windows, GraphPad Software, La Jolla Calif. USA. A non-linear regression curve with log (agonist) vs. response using a variable slope was used to fit the data. […] EC2× values were interpolated from the curve.

Row | SMILES | IC50 [1] [nM] | HRF2 ARE 2× [2] [nM]
1 | C[C@H]1C(=O)C(C#N)=C[C@@]2(C)c3nc(-c4ccc(C5CC5)nc4)nc(-c4ccccc4F)c3CC[C@H]12 [T140] | 26 | 451
2 | Cc1nc(-c2nc(-c3ccccc3F)c3c(n2)[C@]2(C)C=C(C#N)C(=O)[C@H](C)[C@H]2CC3)no1 [T71] | 198 | 780
3 | CCOC(=O)CCc1cc(-c2nc(-c3ccccc3F)c3c(n2)[C@]2(C)C=C(C#N)C(=O)[C@H](C)[C@H]2CC3)ccn1 [T151] | 54 | 1111
4 | Cc1cc(-c2nc(OC3CCC3)c3c(n2)[C@]2(C)C=C(C#N)C(=O)[C@H](C)[C@H]2CC3)c2ccccc2n1 [T110] | 37 | 317
5 | CC(=O)N1CCC(c2nc(-c3ccccc3)c3c(n2)[C@]2(C)C=C(C#N)C(=O)[C@H](C)[C@H]2CC3)CC1 [T46] | 177 | 735
6 | CC(C)c1nc(-c2ccnc3ccccc23)nc2c1CC[C@@H]1[C@@H](C)C(=O)C(C#N)=C[C@@]21C [T42] | 165 | 513
7 | C[C@H]1C(=O)C(C#N)=C[C@@]2(C)c3nc(C4=CCCNC4)nc(-c4ccccc4)c3CC[C@H]12.Cl [T48] | 225 | 460
8 | Cc1cc(-c2nc(-c3ccccc3F)c3c(n2)[C@]2(C)C=C(C#N)C(=O)[C@H](C)[C@H]2CC3)ncn1 [T78] | 89 | 629
9 | COC(=O)[C@@]1(C)C(=O)C=C[C@@]2(C)c3nc(-c4ccncc4)nc(OC)c3CC[C@H]12 [T135] |  | >2000
10 | C=CC[C@H]1C(=O)C(C#N)=C[C@@]2(C)c3nc(-c4ccnc(C5CC5)c4)nc(-c4ccccc4F)c3CC[C@H]12 [T145] |  | 337

Now from value to molecule, other results behind:

Row | IC50 [1] [nM] | SMILES | HRF2 ARE 2× [2] [nM]
11 | 329 | C[C@@H]1C(=O)C(C#N)=C[C@@]2(C)c3nc(-c4ccnc5ccccc45)nc(-c4ccccc4F)c3CC[C@@H]12 [T175] | >2000
12 | 33 | C[C@H]1C(=O)C(C#N)=C[C@@]2(C)c3nc(-c4cccc5cnccc45)nc(-c4ccccc4F)c3CC[C@H]12 [T86] | 276
13 | 34 | C[C@H]1C(=O)C(C#N)=C[C@@]2(C)c3nc(-c4cnc5ccccc5c4)nc(-c4ccccc4F)c3CC[C@H]12 [T59] | 311
14 | 63 | C[C@H]1C(=O)C(C#N)=C[C@@]2(C)c3nc(-c4ccnc5ccccc45)nc(-c4cccc(F)c4)c3CC[C@H]12 [T39] | 427
15 | 27 | C[C@H]1C(=O)C(C#N)=C[C@@]2(C)c3nc(-c4ccncc4-c4ccccc4)nc(-c4ccccc4F)c3CC[C@H]12 [T179] | 649
16 | 31 | Cc1cccc2c(-c3nc(-c4ccccc4F)c4c(n3)[C@]3(C)C=C(C#N)C(=O)[C@H](C)[C@H]3CC4)ccnc12 [T68] | 253
17 | 60 | CC(=O)Nc1cc(-c2nc(-c3ccccc3F)c3c(n2)[C@]2(C)C=C(C#N)C(=O)[C@H](C)[C@H]2CC3)ccn1 [T61] | 461
18 | 374 | CC1=C2CCc3c(-c4ccccc4F)nc(-c4ccnc5ccccc45)nc3[C@]2(C)C=C(C#N)C1=O [T38] | >2000
19 | 65 | C[C@H]1C(=O)C(C#N)=C[C@@]2(C)c3nc(-c4cc(C=O)nc5ccccc45)nc(-c4ccccc4F)c3CC[C@H]12 [T116] | 303
20 | 170 | C[C@H]1C(=O)C(C#N)=C[C@@]2(C)c3nc(-c4ccnc5ccccc45)nc(-c4nccs4)c3CC[C@H]12 [T107] | 284
21 | 38 | Cc1cc(-c2nc(-c3ccccc3F)c3c(n2)[C@]2(C)C=C(C#N)C(=O)[C@H](C)[C@H]2CC3)c2cc(F)ccc2n1 [T85] | 307
22 | 63 | C[C@H]1C(=O)C(C#N)=C[C@@]2(C)c3nc(-c4cnn5ccccc45)nc(-c4ccccc4F)c3CC[C@H]12 [T67] | 208
